Reference: ChEMBL document CHEMBL1137798, “Evaluation of natural products as inhibitors of human immunodeficiency virus type 1 (HIV-1) reverse transcriptase” (J Nat Prod, 1991)
Where a name gives a salt, the structure may show the parent alone.

These molecules were tested against Human immunodeficiency virus type 1 reverse transcriptase (Human immunodeficiency virus 1, UniProt Q72547). Conditions: not given.
With RAUWOLFIA SERPENTINA the IC50 was > 200 µg/mL.

Same assay, conditions: read-out: IC50 (converted)
With CC[C@]1(O)C[C@@H]2CN(CCc3c([nH]c4ccccc34)[C@@](C(=O)OC)(c3cc4c(cc3OC)N(C)[C@H]3[C@@](O)(C(=O)OC)[C@H](OC(C)=O)[C@]5(CC)C=CCN6CC[C@]43[C@@H]65)C2)C1 [VINBLASTINE] the IC50 was > 247 µM.
C=C1C[C@@]23CC[C@H]4[C@@](C)(CCC[C@@]4(C)C(=O)O[C@@H]4O[C@H](CO)[C@@H](O)[C@H](O)[C@H]4O)[C@@H]2CC[C@]1(O[C@@H]1O[C@H](CO)[C@@H](O)[C@H](O)[C@H]1O[C@@H]1O[C@H](CO)[C@@H](O)[C@H](O)[C@H]1O)C3 [STEVIOSIDE] was tested, and the IC50 was > 248 µM.
COc1ccc2c(c[n+](C)c3c4cc5c(cc4ccc23)OCO5)c1OC [CHELERYTHRINE CHLORIDE] was tested, and the IC50 was < 521 µM.
With COC(=O)[C@H]1[C@H]2C[C@H]3c4[nH]c5ccccc5c4CCN3C[C@@H]2CC[C@@H]1O [CORYNANTHEINE] the IC50 was > 564 µM.
For Cc1c2ccncc2c(C)c2c1[nH]c1ccccc12 [ELLIPTECINE], the IC50 was < 609 µM.
In the case of CC1=C(O)C(=O)C=C2C1=CC=C1[C@@]2(C)CC[C@@]2(C)[C@@H]3C[C@@H](C)C(=O)[C@@H](O)[C@]3(C)CC[C@]12C [TINGENIN B], the IC50 is reported as > 458 µM.
COc1coc(CO)cc1=O was tested, and the IC50 was > 1280 µM.
In the case of C/C=C1/C(=O)O[C@]23C=C[C@@H]4C(C(=O)OC)=CO[C@H](O[C@@H]12)[C@@H]43 [PLUMERICIN], the IC50 is reported as > 689 µM.
For COc1cc2c(c(OC)c1OC)-c1ccc(OC)c(=O)cc1[C@@H](NC(C)=O)CC2 [COLCHICINE], the IC50 was > 501 µM.
In the case of O=c1ccc2cc(O[C@@H]3O[C@H](CO)[C@@H](O)[C@H](O)[C@H]3O)c(O)cc2o1 [ESCULIN], the IC50 is reported as > 588 µM.
With C[C@H]1CC[C@]2(NC1)O[C@H]1C[C@H]3[C@@H]4CC[C@H]5C[C@@H](O[C@@H]6O[C@H](CO)[C@H](O[C@@H]7O[C@H](CO)[C@@H](O)[C@H](O[C@@H]8OC[C@@H](O)[C@H](O)[C@H]8O)[C@H]7O[C@@H]7O[C@H](CO)[C@@H](O)[C@H](O)[C@H]7O)[C@H](O)[C@H]6O)CC[C@]5(C)[C@H]4CC[C@]3(C)[C@H]1[C@@H]2C [TOMATINE] the IC50 was > 193 µM.
In the case of CC[C@]12CCc3[nH]c4ccccc4c3CCN(C[C@H]3O[C@H]31)C2 [CONOFLORINE], the IC50 is reported as > 675 µM.
For CC[C@H]1CN2CCc3cc(OC)c(OC)cc3[C@@H]2C[C@@H]1C[C@H]1NCCc2cc(OC)c(OC)cc21, the IC50 was > 387 µM.
With CC[C@H](/C=C/[C@@H](C)[C@H]1CC[C@H]2[C@@H]3CC=C4C[C@@H](O)CC[C@]4(C)[C@H]3CC[C@]12C)C(C)C [STIGMASTEROL] the IC50 was > 485 µM.
With CN1[C@@H]2C[C@@H](OC(=O)[C@H](CO)c3ccccc3)C[C@H]1[C@@H]1O[C@@H]12 [SCOPOLAMINE HYDROBROMIDE] the IC50 was > 456 µM.
With C/C=C1/CN[C@H]2Cc3c([nH]c4ccccc34)C(=O)C[C@@H]1[C@@H]2C(=O)OC [PERIVINE] the IC50 was > 591 µM.
In the case of CC[C@@]1(O)C(=O)OCc2c1cc1n(c2=O)Cc2cc3ccccc3nc2-1 [CAMPTOTHECIN], the IC50 is reported as > 574 µM.
In the case of O[C@H]1[C@H]2[C@H](O)CCCN2C[C@H]1O [TRIDOLGOSIR], the IC50 is reported as > 1150 µM.
In the case of CC[C@@H]1CN2CCc3c([nH]c4ccccc34)[C@@H]2C[C@@H]1/C(=C\OC)C(=O)OC [CORYNANRHEIDINE], the IC50 is reported as > 543 µM.
In the case of COc1cc2c(OC)c3ccoc3nc2cc1O, the IC50 is reported as > 816 µM.
In the case of COc1cccc2c1C(=O)c1c(O)c3c(c(O)c1C2=O)C[C@@](O)(C(C)=O)C[C@@H]3O[C@H]1C[C@H](N)[C@H](O)[C@H](C)O1 [DAUNORUBICIN], the IC50 is reported as 237 µM.
In the case of COc1cc2c(c3c1c(=S)c1ccccc1n3C)C=CC(C)(C)O2 [THIOACRONYCINE], the IC50 is reported as > 593 µM.
Work on COc1cc2c(cc1O)CC[n+]1cc3c(OC)c(OC)ccc3cc1-2 [JATRORRHIZINE CHLORIDE] yielded an IC50 of 190 µM.
For CC[C@@]12CCCN3CC[C@@]4(C(=Nc5c(OC)cccc54)CC1)[C@H]32, the IC50 was > 644 µM.
With Cn1cncc1C[C@H]1COC(=O)[C@@H]1[C@@H](O)c1ccccc1 [ISOPILOSINE] the IC50 was > 698 µM.
In the case of COc1cc2cc(c1Cl)N(C)C(=O)C[C@H](OC(=O)[C@H](C)N(C)C(C)=O)[C@]1(C)O[C@H]1[C@H](C)[C@@H]1C[C@@](O)(NC(=O)O1)[C@H](OC)/C=C/C=C(\C)C2 [MAYTANSINE], the IC50 is reported as > 289 µM.
In the case of C/C=C1/CN2[C@H]3C[C@H]1[C@@H](CO)[C@@H]2Cc1c3[nH]c2ccc(O)cc12 [SARPAGINE], the IC50 is reported as > 644 µM.
For CC(=O)O[C@@H]1[C@@H](O)[C@H](O[C@H]2[C@H](OC(=O)[C@H]3CC[C@@H]4[C@H](C3)O[C@@]3(C[C@H](OC(=O)/C=C/c5ccccc5)[C@H](C)CO3)[C@]43CO3)O[C@H](C)[C@@H](O)[C@@H]2OC(C)=O)O[C@H](C)[C@H]1O [PHYLLANTHOSIDE], the IC50 was > 248 µM.
COC(=O)C1=CO[C@@H](O[C@@H]2O[C@H](CO)[C@@H](O)[C@H](O)[C@H]2O)[C@H]2[C@@H]1C=C[C@@]21C=C([C@H](C)O)C(=O)O1 [PLUMIERIDE] was tested, and the IC50 was > 425 µM.
In the case of C1CN[C@@H]2[C@@H](C1)[C@@H]1CC2([C@H]2CCC[C@H](C3CC[C@@H]4N[C@H]3N3CCC[C@H]5C[C@@H]6C[C@]4(CN4CCCC[C@H]64)[C@@H]53)N2)CN2CCCC[C@H]12 (some centres undefined) [ORMOSININE], the IC50 is reported as > 324 µM.
CC(=O)N[C@H]1[C@H](O[C@H]2CC[C@]3(C)[C@H]4CC=C5[C@H]6CC(C)(C)CC[C@]6(C(=O)O)CC[C@@]5(C)[C@]4(C)CC[C@H]3C2(C)C)O[C@H](CO)[C@@H](O)[C@@H]1O [ARIDANIN] was tested, and the IC50 was > 303 µM.
With C[C@]12CCC(=O)C=C1CC[C@@H]1[C@@H]2CC[C@]2(C)C(=O)CC[C@@H]12 [ANDROSTENEDIONE] the IC50 was > 698 µM.
For CC(C)[C@](O)(C(=O)OCC1=CC[N+]2([O-])CC[C@@H](O)[C@@H]12)[C@H](C)O (some centres undefined) [INDICINE N-OXIDE], the IC50 was > 634 µM.
With CC[C@@]12CCCN3CC[C@]4(c5cccc(OC)c5N(C(C)=O)[C@@H]4CC1)[C@H]32 [ASPIDOSPERMINE] the IC50 was > 564 µM.
For COc1c2occc2c(OC)c2c(=O)cc(C)oc12 [KHELLIN], the IC50 was > 769 µM.
For C/C=C1/C=[N+]2[C@H]3C[C@H]1[C@H](C(=O)OC)[C@@H]2Cc1c3[nH]c2ccc(O)cc12 [PERICYCLIVINE], the IC50 was > 593 µM.
For C[n+]1cc2c3c(ccc2c2ccc4cc5c(cc4c21)OCO5)OCO3 [SANGUINARINE NITRATE], the IC50 was < 380 µM.
C/C=C(/C)C(=O)O[C@H]1CC[C@@]2(C)[C@@H]3CC[C@H]4[C@]5(O)C[C@H](O)[C@@]6(O)[C@@H](CN7C[C@@H](C)CC[C@H]7[C@@]6(C)O)[C@]5(O)C[C@]42O[C@]13O [VERATRINE] was tested, and the IC50 was > 338 µM.
With CC1(C)CC[C@]2(CO)[C@H](O)C[C@]3(C)C(=CC[C@@H]4[C@@]5(C)CC[C@H](O)C(C)(C)[C@@H]5CC[C@]43C)[C@@H]2C1 [PRIMULAGENIN] the IC50 was > 436 µM.
In the case of CC(=O)N[C@H]1[C@@H](O[C@H]2[C@H](O)[C@@H](O)[C@H](O[C@H]3[C@H](CS(=O)(=O)O)[C@@H](OS(=O)(=O)O)[C@@H](O[C@H]4[C@H](O)[C@@H](OS(=O)(=O)O)C(O)O[C@H]4C(=O)O)O[C@@H]3O)O[C@@H]2C(=O)O)O[C@H](COS(=O)(=O)O)[C@@H](O)[C@@H]1O (some centres undefined) [SODIUM HEPARIN], the IC50 is reported as > 192 µM.
COC(=O)C1=CO[C@H](C)[C@@H]2CN3CCc4c([nH]c5ccccc45)[C@@H]3C[C@H]12 [RAUNITICINE] was tested, and the IC50 was > 567 µM.
In the case of CC1=C(C)C(=O)O[C@@H]([C@](C)(O)[C@]2(O)CC[C@@]3(O)[C@@H]4C[C@H]5O[C@]56[C@@H](O)C=CC(=O)[C@]6(C)[C@H]4CC[C@]23C)C1, the IC50 is reported as > 398 µM.
For COC(=O)C[C@](O)(CCC(C)(C)O)C(=O)O[C@@H]1C(OC)=C[C@]23CCCN2CCc2cc4c(cc2[C@H]13)OCO4 [HARRINGTONINE], the IC50 was > 376 µM.
In the case of COC(=O)C1=CO[C@@H](C)[C@@H]2CN3CCc4c([nH]c5ccccc45)[C@@H]3C[C@H]12 [TETRAHYDROALSTONINE], the IC50 is reported as > 567 µM.
In the case of C/C=C1/CN2[C@H]3C[C@@H]1[C@@H](CO)[C@@H]2Cc1c3[nH]c2ccc(OC)cc12 [LOCHNERINE], the IC50 is reported as > 616 µM.
In the case of COc1ccc2c(c1OC)-c1cc(ccc1O)/C=C\C(=O)O[C@H]1C[C@@H]3CCCCN3[C@H]2C1, the IC50 is reported as > 460 µM.
In the case of C=C[C@H]1C[N@@]2CC[C@H]1C[C@@H]2[C@@H](O)c1ccnc2ccc(OC)cc12 [QUINIDINE SULFATE], the IC50 is reported as > 511 µM.
COc1ccc(Cc2nccc3cc(OC)c(OC)cc23)cc1OC [PAPAVERINE] was tested, and the IC50 was < 589 µM.
In the case of COc1c(O)cc(O)c2c(=O)c(O)c(-c3ccccc3)oc12, the IC50 is reported as > 734 µM.
With C=C(C)[C@H]1Cc2c(ccc3c2O[C@@H]2COc4cc(OC)c(OC)cc4[C@]2(O)C3=O)O1 [ROTENOLONE] the IC50 was > 487 µM.
In the case of C=C(C)[C@H]1Cc2c(ccc3c2O[C@@H]2COc4cc(OC)c(OC)cc4[C@@H]2C3=O)O1 [ROTENONE], the IC50 is reported as > 507 µM.
For O=C(OC[C@H]1O[C@@H](OC(=O)c2cc(O)c(O)c(OC(=O)c3cc(O)c(O)c(O)c3)c2)[C@H](OC(=O)c2cc(O)c(O)c(OC(=O)c3cc(O)c(O)c(O)c3)c2)[C@@H](OC(=O)c2cc(O)c(O)c(OC(=O)c3cc(O)c(O)c(O)c3)c2)[C@@H]1OC(=O)c1cc(O)c(O)c(OC(=O)c2cc(O)c(O)c(O)c2)c1)c1cc(O)c(O)c(OC(=O)c2cc(O)c(O)c(O)c2)c1 [TANNIC ACID], the IC50 was < 29.4 µM.
COc1cc(C[C@H]2c3cc(OC)c(OC)cc3CCN2C)c(Oc2cc3c(cc2OC)-c2c(OC)c(OC)cc4c2[C@H](C3)N(C)CC4)cc1OC [THALICARPINE] was tested, and the IC50 was > 287 µM.
CC[C@]1(O)C[C@H]2CN(CCc3c([nH]c4ccccc34)[C@@](C(=O)OC)(c3cc4c(cc3OC)N(C=O)[C@H]3[C@@](O)(C(=O)OC)[C@H](OC(C)=O)[C@]5(CC)C=CCN6CC[C@]43[C@@H]65)C2)C1 [VINCRISTINE] was tested, and the IC50 was > 242 µM.
In the case of C/C=C1/C[C@@H](C)[C@](O)(CO)C(=O)OCC2=CCN3CC[C@@H](OC1=O)[C@@H]23 [RETRORSINE], the IC50 is reported as > 569 µM.
With CC(=O)O[C@H]1CC(=O)OC(C)(C)[C@@H]2CC(=O)[C@]3(C)[C@H](CC[C@@]4(C)[C@@H](c5ccoc5)OC(=O)[C@H]5O[C@]543)[C@@]12C [NOMILIN] the IC50 was > 389 µM.
With C/C=C1/C[C@@H](C)[C@@](C)(O)C(=O)OCC2=CCN3CC[C@@H](OC1=O)[C@@H]23 [SENECIONINE] the IC50 was > 596 µM.
With COC(=O)[C@H]1[C@H]2C[C@@H]3c4[nH]c5ccccc5c4CCN3C[C@H]2C[C@@H](OC(=O)c2cc(OC)c(OC)c(OC)c2)[C@@H]1OC [DESERPIDINE] the IC50 was > 346 µM.
